Assay [1] addresses 5-hydroxytryptamine receptor 5A (Homo sapiens, UniProt P47898). Put plainly: Binding affinity towards 5-hydroxytryptamine 5A receptor.
The nature of assay [2]: Antagonistoc activity of compound for 5-CT-mediated adenylate cyclase activity. The class given is functional.
The target in assay [3] is T1, Alpha-1A adrenergic receptor (Homo sapiens, UniProt P35348).
T1 sequence (P35348 whole entry): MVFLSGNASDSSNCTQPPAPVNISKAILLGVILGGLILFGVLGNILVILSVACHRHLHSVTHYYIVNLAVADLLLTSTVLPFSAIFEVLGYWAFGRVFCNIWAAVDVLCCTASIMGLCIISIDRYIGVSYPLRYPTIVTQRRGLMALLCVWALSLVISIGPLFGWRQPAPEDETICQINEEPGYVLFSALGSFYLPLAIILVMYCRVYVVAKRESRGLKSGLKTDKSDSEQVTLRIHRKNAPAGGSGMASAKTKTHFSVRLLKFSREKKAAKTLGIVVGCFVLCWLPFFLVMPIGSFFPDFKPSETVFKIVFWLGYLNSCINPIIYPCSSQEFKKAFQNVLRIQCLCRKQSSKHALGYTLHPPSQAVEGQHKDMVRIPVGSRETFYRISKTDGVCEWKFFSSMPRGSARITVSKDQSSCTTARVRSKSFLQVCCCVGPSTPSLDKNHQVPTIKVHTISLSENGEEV
Put plainly: Binding affinity towards alpha-1-adrenergic receptor.

The target of assay [4] is T2, Alpha-2A adrenergic receptor (Homo sapiens, UniProt P08913).
T2 sequence (P08913 whole entry): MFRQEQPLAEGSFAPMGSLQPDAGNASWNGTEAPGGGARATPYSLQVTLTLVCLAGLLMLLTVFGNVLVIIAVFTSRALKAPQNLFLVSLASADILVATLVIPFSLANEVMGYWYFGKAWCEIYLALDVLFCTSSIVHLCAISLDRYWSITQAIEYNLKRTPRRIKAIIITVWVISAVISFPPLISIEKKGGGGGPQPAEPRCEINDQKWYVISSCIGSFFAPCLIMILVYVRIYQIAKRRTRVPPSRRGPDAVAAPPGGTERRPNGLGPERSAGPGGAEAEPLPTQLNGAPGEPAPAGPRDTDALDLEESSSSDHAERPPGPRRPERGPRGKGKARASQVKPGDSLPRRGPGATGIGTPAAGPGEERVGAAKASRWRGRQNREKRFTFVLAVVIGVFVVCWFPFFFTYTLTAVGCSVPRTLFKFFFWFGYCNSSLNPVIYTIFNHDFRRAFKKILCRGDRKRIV
Put plainly: Binding affinity towards Alpha-2 adrenergic receptor.

Assay [5] has as its target 5-hydroxytryptamine receptor 7 (Homo sapiens, UniProt P34969). Put plainly: Binding affinity towards human 5-hydroxytryptamine 7 receptor.
In assay [6] the target is 5-hydroxytryptamine receptor 2A (Homo sapiens, UniProt P28223). Put plainly: Binding affinity towards 5-hydroxytryptamine 2A receptor.
Assay [7] can be described thus: Antagonistic activity of compound in 5-HT induced cAMP accumulation. The class given is functional.
The target of assay [8] is T3, 5-hydroxytryptamine receptor 6 (Homo sapiens, UniProt P50406). Put plainly: Binding affinity towards human 5-hydroxytryptamine 6 receptor.
For assay [9], the target named is T4, 5-hydroxytryptamine receptor 5A (Mus musculus, UniProt P30966). Put plainly: Binding affinity towards mouse 5-hydroxytryptamine 5A receptor was evaluated using [3H]- LSD as radioligand.
For assay [10], the target named is T3, 5-hydroxytryptamine receptor 6.
The target is the same in assay [11]. Put plainly: Antagonistic activity towards 5-hydroxytryptamine 6 receptor. Type of assay: functional. Conditions: read-out: pA2 (converted).
The target of assay [12] is T4, 5-hydroxytryptamine receptor 5A. Put plainly: Binding affinity towards mouse 5-hydroxytryptamine 5A receptor.

Molecules are shown by their SMILES. A value given as a limit tells only on which side of the number the result lay.

T3 sequence (P50406 whole entry): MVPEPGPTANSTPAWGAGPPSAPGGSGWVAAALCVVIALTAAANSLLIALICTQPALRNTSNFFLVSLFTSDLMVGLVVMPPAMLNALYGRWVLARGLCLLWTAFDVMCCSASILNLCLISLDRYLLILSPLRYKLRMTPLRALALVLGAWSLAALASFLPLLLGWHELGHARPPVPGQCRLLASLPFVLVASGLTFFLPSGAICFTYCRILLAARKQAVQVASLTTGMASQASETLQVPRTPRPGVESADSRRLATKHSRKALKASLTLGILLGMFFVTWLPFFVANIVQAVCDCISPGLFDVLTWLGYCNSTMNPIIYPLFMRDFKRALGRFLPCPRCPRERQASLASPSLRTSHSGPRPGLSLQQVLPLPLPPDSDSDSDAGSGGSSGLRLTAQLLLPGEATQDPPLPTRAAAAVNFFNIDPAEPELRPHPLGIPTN
T4 sequence (P30966 whole entry): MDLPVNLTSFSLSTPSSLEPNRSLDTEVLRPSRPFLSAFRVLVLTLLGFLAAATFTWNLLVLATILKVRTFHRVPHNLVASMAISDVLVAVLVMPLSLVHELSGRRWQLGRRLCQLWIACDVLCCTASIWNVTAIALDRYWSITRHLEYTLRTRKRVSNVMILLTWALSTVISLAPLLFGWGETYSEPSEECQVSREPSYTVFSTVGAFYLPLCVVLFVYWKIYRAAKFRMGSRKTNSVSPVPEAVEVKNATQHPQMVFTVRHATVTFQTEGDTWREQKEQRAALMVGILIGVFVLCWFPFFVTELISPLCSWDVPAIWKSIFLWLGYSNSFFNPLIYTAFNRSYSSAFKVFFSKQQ
5-hydroxytryptamine receptor 7, sequence (P34969 whole entry): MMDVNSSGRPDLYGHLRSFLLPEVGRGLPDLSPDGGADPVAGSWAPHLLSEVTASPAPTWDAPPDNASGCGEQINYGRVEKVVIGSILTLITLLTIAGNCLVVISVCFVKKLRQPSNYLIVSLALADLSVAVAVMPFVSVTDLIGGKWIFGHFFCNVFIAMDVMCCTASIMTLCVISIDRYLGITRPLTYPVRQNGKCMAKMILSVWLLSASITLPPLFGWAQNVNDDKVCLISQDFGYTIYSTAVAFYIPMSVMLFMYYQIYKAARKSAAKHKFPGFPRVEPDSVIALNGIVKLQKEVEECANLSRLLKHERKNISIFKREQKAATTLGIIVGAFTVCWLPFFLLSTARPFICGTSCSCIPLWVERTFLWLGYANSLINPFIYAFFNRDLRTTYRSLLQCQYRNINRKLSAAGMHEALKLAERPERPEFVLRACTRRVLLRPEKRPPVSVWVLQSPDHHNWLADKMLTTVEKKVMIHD
5-hydroxytryptamine receptor 5A (Homo sapiens, UniProt P47898), sequence (P47898 whole entry): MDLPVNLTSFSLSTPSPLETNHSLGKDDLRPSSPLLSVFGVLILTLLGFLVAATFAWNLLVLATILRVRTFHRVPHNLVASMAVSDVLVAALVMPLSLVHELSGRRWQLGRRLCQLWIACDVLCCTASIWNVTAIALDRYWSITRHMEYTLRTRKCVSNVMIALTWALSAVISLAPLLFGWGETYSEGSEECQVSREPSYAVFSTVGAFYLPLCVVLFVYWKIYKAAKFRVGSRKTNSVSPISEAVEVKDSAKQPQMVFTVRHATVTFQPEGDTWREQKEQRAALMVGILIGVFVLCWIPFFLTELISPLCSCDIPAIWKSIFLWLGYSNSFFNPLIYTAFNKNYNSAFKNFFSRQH
5-hydroxytryptamine receptor 2A, sequence (P28223 whole entry): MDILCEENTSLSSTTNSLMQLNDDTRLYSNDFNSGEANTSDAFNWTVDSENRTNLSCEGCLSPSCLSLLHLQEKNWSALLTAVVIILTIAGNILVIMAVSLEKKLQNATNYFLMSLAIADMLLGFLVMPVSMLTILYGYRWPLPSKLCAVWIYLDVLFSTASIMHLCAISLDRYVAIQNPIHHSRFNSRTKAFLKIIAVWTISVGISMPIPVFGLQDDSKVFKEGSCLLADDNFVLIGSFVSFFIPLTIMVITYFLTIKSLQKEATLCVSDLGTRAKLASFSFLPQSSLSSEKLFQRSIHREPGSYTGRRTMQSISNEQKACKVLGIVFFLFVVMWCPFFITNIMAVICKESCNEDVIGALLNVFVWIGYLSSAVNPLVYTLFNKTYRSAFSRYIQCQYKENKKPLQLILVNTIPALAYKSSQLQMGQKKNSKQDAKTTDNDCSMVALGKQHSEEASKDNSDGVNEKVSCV

For the molecule `Cl.O=S(=O)(c1ccc2cc[nH]c2c1)N1CCC[C@@H]1CCN1CCC(Oc2ccc(Cl)cc2)CC1`, in assay [1], the affinity corresponds to a Ki of 168 nM. This molecule also returned a pA2 in assay [2] of 8.1.

Consider `CN1CCc2ccc3c4c2[C@H]1Cc1cccc(c1-4)[C@@H]3N`, for which the Ki in [3] was found to be 373 nM; in assay [4], 92.8 nM; in [5] it was 18 nM; in assay [6], 469 nM.

Regarding `CNc1cc(NS(=O)(=O)c2ccc(N)cc2)cc(NC)n1`, in [7], the pA2 is on record as 7.1. For the same molecule, in assay [8], the Ki came to 12 nM.

Turning to `c1ccc2c(N3CCNCC3)cccc2c1`, the Ki in assay [9] amounted to 40 nM.

`COc1ccc2c(c1)c(CCN(C)C)cn2S(=O)(=O)c1ccccc1` yielded a Ki in assay [10] of 2.1 nM. The Kb in assay [11] is 1.32 nM.

As to `c1ccc2c3c([nH]c2c1)CNCC3` [TRYPTOLINE], the Ki in assay [12] is 2470 nM; in assay [10] it was above 5000 nM.

Values taken from ChEMBL document CHEMBL1145819 (J Med Chem, 2003).
